The values that follow come from patent US4772459A, “Method for controlling emesis caused by chemotherapeutic agents and antiemetic agents useful therein” (priority 1986, dated 1988).

Counter-ions that a name gives are not always drawn.

A short description of one data set: Cisplatin Emesis. The data set is classed as in vivo, Beagle dogs. The settings on record: for ED50: Canis lupus familiaris, iv, dog, drug i.v. 30 min before and 120 min after 3 mg/kg cisplatin i.v., blocked if 2 or less emetic events in 5 h. On the procedure: Mature Beagle dogs of either sex, weighing 7-16 kg, were individually caged with water available ad libitum. Each animal was offered 300 g of Purina Dog Chow the day of an experiment. Drug in varying doses or carrier was administered intravenously 30 minutes before and 120 minutes after intravenous bolus administration of 3 mg/kg cisplatin (Ben Venue Laboratories, Inc., Bedford, Ohio). […] Emesis was considered blocked if the animal suffered 2 or less emetic events. Based upon these observations, ED50 values were determined for each of the compounds tested.

Another data set deals with striatal DOPAC. The data set can be described thus: Dopamine Turnover: striatal DOPAC response. The data set is classed as in vivo, Sprague Dawley rats (male). The following applies: rat; for Response of striatal DOPAC, percent change from control: intravenous. As to the method:
Male Sprague Dawley rats were injected intravenously with various doses of test compound and whole brain was removed at a predetermined time after dosing. The striatum was dissected from the brain, homogenized in a buffer/organic solvent mixture, clarified with a centrifuge, and an aliquot of the supernatant analyzed for 3,4-dihydroxyphenylacetic acid (DOPAC) by high performance liquid chromatography coupled with an electrochemical detector. The results are expressed as the percent change from control. The standard deviation of the data generally required a difference of 18% from control to be statistically significant at the 0.05 level as determined by the Student's "t" test. DOPAC is a metabolite of dopamine.

The nature of another data set: Catalepsy. The data set is classed as in vivo, Sprague Dawley rats (female). The settings on record: 20 mg/kg i.v., rat, tested one and two hours later. On the procedure: Female Sprague Dawley rats (Harlen Industries, Indianapolis, Ind.), weighing 160-225 g, were used. The animals (n=6) were injected intravenously with drug (20 mg/kg) or carrier (saline; 2 ml/kg) and were tested one and two hours later. This involved placing the front paws of the rat on a horizontal metal bar suspended 10 cm above the table top and recording the number of seconds, to a maximum of 60, that the animal remains in this position. Each animal was tested three times in succession and the average time the animal remained on the bar was calculated. Student's non-paired "t" test was employed to determine the significance of differences between the control and treated groups.

Another data set in a line: Dacarbazine Emesis. The class given is in vivo, beagle dogs. The settings on record: 1.0 mg/kg IV × 2, dog; dacarbazine 10 mg/kg i.v.; protected if 2 or less emetic events in 5 h. As to the method: Mature beagle dogs (7-16 kg) were used in these experiments. The animals were individually caged with water available ad libitum. Each dog was offered 300 g of Purina Dog Chow the day of an experiment. Drug (mg base/kg) or carrier (0.9% saline; 0.2 ml/kg) was administered intravenously 30 minutes before and 120 minutes after intravenous bolus administration of 10 mg/kg dacarbazine (10 mg DTIC/ml saline; Miles Pharmaceuticals). […] If the animal suffered 2 or less emetic events, the animal was considered protected.

The nature of the next data set: Apomorphine Emesis. The data set is classed as in vivo, beagle dogs. The following applies: dog, apomorphine HCl 0.1 mg/kg s.c., protected if no emetic events in 1 h. As to the method: Mature beagle dogs, individually caged and weighing 10.6-14.5 kg, were used in these experiments. The animals were fed just before being dosed intravenously with drug (mg base/kg) or carrier (0.9% saline; 0.2 ml/kg). Each animal received 0.1 mg/kg apomorphine hydrochloride (1 mg/ml saline; Lilly) subcutaneously thirty minutes after administration of the test compound. […] If the animal had no emetic events, the animal was considered protected.

Another data set in a line: Apomorphine Climbing. The data set is classed as in vivo, ICR-Swiss mice (male). The settings on record: for ED50: ip, 0.5 h, mouse, dose yielding climbing index of 100, apomorphine HCl 1 mg/kg s.c. 30 min after drug, read-out: Apomorphine Climbing 50% ED. As to the method:
Male ICR-Swiss mice (Harlan Industries, Indianapolis, Ind.), weighing 25-29 g, were placed in 8×10×16 cm wire cages. After a 1 to 1.5 hour acclimatization period, drug or carrier was administered intraperitoneally. Apomorphine hydrochloride (Lilly; 1 mg/kg) or carrier (saline, 10.0 ml/kg) was administered subcutaneously 30 minutes after test compound administration. Climbing behavior was assessed 20 minutes after apomorphine injection using the following scoring system:
(0) 4 paws on the floor of the cage
(1) 1, 2, or 3 paws grasping a side of the cage
(2) 4 paws grasping a side of the cage.
Climbing indexes were calculated using the formula: [formula] 50% ED values (i.e., the dose of drug which yields a climbing index of 100) were calculated using regression equations.

The conditions of data set [1]: very high dosages, beginning prior to cisplatin and continuing through post administration; cited from earlier work.

For the compound `Nc1c(Cl)cc(C(=O)NC[C@@H]2CCCN2)c2c1CCO2` [Compound 3, (L)-4-amino-5-chloro-N--(2-pyrrolidinylmethyl)-2,3-dihydrobenzo[b]furan-7-carboxamide hydrochloride], the values for the ED50 in “Cisplatin Emesis” and in “Apomorphine Climbing” were about 0.42 mg/kg and 75 mg/kg, respectively. Also, the “Response of striatal DOPAC, percent change from control” value (from here on “Response … percent change from control”) with striatal DOPAC (0.3 mg/kg) is given as -14.4%; with striatal DOPAC (1.0 mg/kg), -10.0%; in the data set on striatal DOPAC (3.3 mg/kg) it was -6.2%; with striatal DOPAC (10 mg/kg), -2.7%; in the data set with striatal DOPAC (33 mg/kg) it was 6.4%. Besides, the Catalepsy entry in “Catalepsy” (hydrochloride) is listed as “No”. For the same compound, the “Dacarbazine-induced emesis: Number Protected/Number Dosed” value in “Dacarbazine Emesis” was 4/4. In addition, the “Apomorphine-induced emesis: Number Protected/Number Dosed” value in the data set “Apomorphine Emesis” (1.0 mg/kg IV), in “Apomorphine Emesis” (2.0 mg/kg IV) and in “Apomorphine Emesis” (4.0 mg/kg IV) was 0/4 each time.

As for `CCN1CCCC1CNC(=O)c1cc(Cl)cc2c1OCC2` (centres unmarked) [Compound C-1, 5-chloro-N--(1-ethyl-2-pyrrolidinylmethyl)-2,3-dihydrobenzo[b]furan-7-carboxamide hydrochloride], the values for the ED50 in the data set “Cisplatin Emesis” and in “Apomorphine Climbing” were 1 mg/kg and 0.91 mg/kg, respectively. Moreover, the Catalepsy result in “Catalepsy” is “Yes”.

Take `Nc1cc2c(c(C(=O)NC[C@@H]3CCCN3)c1)OCC2` [Compound 2, (L)-5-amino-N--(2-pyrrolidinylmethyl)-2,3-dihydrobenzo[b]furan-7-carboxamide hydrochloride]: the ED50 in the data set “Cisplatin Emesis” was about 1.75 mg/kg; in “Apomorphine Climbing”, 100 mg/kg. Further, the “Response … percent change from control” value in the data set with striatal DOPAC (0.3 mg/kg) was 0.0%; in the data set with striatal DOPAC (1.0 mg/kg), -6.5%; with striatal DOPAC (3.3 mg/kg), -17.3%; in the data set with striatal DOPAC (10 mg/kg) it was 0.0%; with striatal DOPAC (33 mg/kg), -10.7%. The Catalepsy result in the data set “Catalepsy” (hydrochloride) is “No”. For the same compound, the “Dacarbazine-induced emesis: Number Protected/Number Dosed” value in “Dacarbazine Emesis” is 4/4. Moreover, the “Apomorphine-induced emesis: Number Protected/Number Dosed” value in “Apomorphine Emesis” (4.0 mg/kg IV) was 0/4.

Take `CCN1CCCC1CNC(=O)c1cc(Cl)c(N)cc1OC` (centres unmarked) [Compound C-4, 4-amino-5-chloro-2-methoxy-N--(1-ethyl-2-pyrrolidinylmethyl)benzamide]: the ED50 in the data set “Cisplatin Emesis” is 1 mg/kg; in the data set “Apomorphine Climbing”, 0.44 mg/kg. The Catalepsy result in “Catalepsy” is given as “Yes”.

On to `O=C(NC[C@@H]1CCCN1)c1cc(Cl)cc2c1OCC2` [Compound 1, (L)-5-chloro-N--(2-pyrrolidinylmethyl)-2,3-dihydrobenzo[b]furan-7-carboxamide hydrochloride], for which the values for the ED50 in “Cisplatin Emesis” and in the data set “Apomorphine Climbing” were 0.6 mg/kg and 36.2 mg/kg, respectively. Moreover, the “Response … percent change from control” value in the data set with striatal DOPAC (0.3 mg/kg) is recorded as -11.6%; in the data set with striatal DOPAC (1.0 mg/kg), -0.6%; with striatal DOPAC (3.3 mg/kg), -2.5%; in the data set with striatal DOPAC (10 mg/kg), 91.8%; in the data set on striatal DOPAC (33 mg/kg), 255.4%. Further, in the data set “Catalepsy” (hydrochloride), the Catalepsy entry is “No”. The “Dacarbazine-induced emesis: Number Protected/Number Dosed” value in “Dacarbazine Emesis” was 4/4. The “Apomorphine-induced emesis: Number Protected/Number Dosed” value in the data set “Apomorphine Emesis” (1.0 mg/kg IV) is 0/2; in the data set “Apomorphine Emesis” (2.0 mg/kg IV), 2/2.

With `CCN(CC)CCNC(=O)c1cc(Cl)c(N)cc1OC` [Metoclopramide, metoclopramide, reference compound], the ED50 in the data set “Cisplatin Emesis” came out at 1.1 mg/kg; in “Apomorphine Climbing” it was 1.7 mg/kg. Further, the “cisplatin antiemetic activity (in words)” value in “Cisplatin Emesis” (data in Table 2) is “effective antiemetics”. Also, the “Response … percent change from control” value in the data set with striatal DOPAC (0.1 mg/kg) is on record as 1.2%; with striatal DOPAC (0.3 mg/kg), 12.4%; in the data set on striatal DOPAC (1.0 mg/kg) it was 81.2%; with striatal DOPAC (3.3 mg/kg) it was 192.0%; in the data set with striatal DOPAC (10 mg/kg), 384.6%. In addition, the “dopamine antagonism suggested by Table 1 (in words)” value with striatal DOPAC (striatal DOPAC, i.v.) is “exhibits strong dopamine antagonism at doses of 1.0 mg/kg and greater”. Moreover, the “effect on emesis caused by cisplatin (in words)” value in data set [1] is recorded as “effective in alleviating emesis caused by cisplatin”. Also, the “Dacarbazine-induced emesis: Number Protected/Number Dosed” value in the data set “Dacarbazine Emesis” was 3/4. The results for the “Apomorphine-induced emesis: Number Protected/Number Dosed” value in the data set “Apomorphine Emesis” (0.125 mg/kg IV) and in “Apomorphine Emesis” (1.0 mg/kg IV) were 2/4 and 4/4, respectively. The “dopamine antagonist activity from Table 2 (in words)” value in the data set “Apomorphine Climbing” (apomorphine climbing and catalepsy data) is “strong dopamine antagonists”.

For the compound `CCN1CCCC1CNC(=O)c1cc(N)cc2c1OCC2` (centres unmarked) [Compound C-2, 5-amino-N--(1-ethyl-2-pyrrolidinylmethyl)-2,3-dihydrobenzo[b]furan-7-carboxamide hydrochloride], the ED50 in “Cisplatin Emesis” was 2.5 mg/kg; in the data set “Apomorphine Climbing”, 10.4 mg/kg. The Catalepsy entry in the data set “Catalepsy” is recorded as “No”.

In the case of `COc1cc(N)c(Cl)cc1C(=O)NC[C@@H]1CCCN1` [Compound 4, (L)-4-amino-5-chloro-2-methoxy-N--(2-pyrrolidinylmethyl)benzamide hydrochloride], the ED50 was 1 mg/kg in “Cisplatin Emesis” and 44.5 mg/kg in “Apomorphine Climbing”. Moreover, the “Response … percent change from control” value is recorded as -1.9% in the data set with striatal DOPAC (0.3 mg/kg); -3.3% in the data set on striatal DOPAC (1.0 mg/kg); -3.7% in the data set with striatal DOPAC (3.3 mg/kg); 13.7% in the data set on striatal DOPAC (10 mg/kg); 41.6% in the data set with striatal DOPAC (33 mg/kg). Also, the Catalepsy entry in the data set “Catalepsy” (hydrochloride) is recorded as “No”. Further, in the data set “Apomorphine Emesis” (1.0 mg/kg IV), the “Apomorphine-induced emesis: Number Protected/Number Dosed” value is on record as 0/4.

For the compound `CCN1CCCC1CNC(=O)c1cc(Cl)c(N)c2c1OCC2` (centres unmarked) [Compound C-3, 4-amino-5-chloro-N--(1-ethyl-2-pyrrolidinylmethyl)-2,3-dihydrobenzo[b]furan-7-carboxamide fumarate], the figures for the ED50 in “Cisplatin Emesis” and in “Apomorphine Climbing” were 0.7 mg/kg and 1.5 mg/kg, respectively. The Catalepsy result in the data set “Catalepsy” was “Yes”.
